Legend:
Cdk2(R122C) (C177A) = molecular target: T1, Cdk2(R122C) (C177A) (Homo sapiens, UniProt P24941, C177A/R122C); assay: Kinetic thiol consumption assay with Cdk2 mutant R122C; type: binding; set-up: key to Rate enhancement, Cdk2 R122C: rate constant with Cdk2 ÷ rate constant with model thiol (fold); settings: additional mutation C177A; for Rate constant with Cdk2 R122C: Protein: Cdk2, cysteine position R122C, in h-1
T1 construct: poly-histidine; made in house; host or cells: E. coli
Protocol: (§1) To wells containing 150 μL thiol (Cdk2 or model thiol) (5 μM) in degassed phosphate buffer (pH 8) was added immobilized TCEP beads (2% v/v).
(§2) After incubation of the fluorescence plates for 1 hour at room temperature, fluorescence measurements (excitation/emission of 380/470 nm) were taken on a PerkinElmer EnVision multilabel plate reader and processed with EnVision Workstation version 1.12.
(§3) Fluorescence measurements were normalized against a DMSO/thiol only control and plotted against time.
(§4) Rate constants were calculated using GraphPad software Prism version 6 by fitting a first order exponential decay to the data. The rate constant for each acrylamide with Cdk2 was divided by the rate constant for that fragment with the model thiol to provide the rate enhancement for each ligand candidate.
(§5) A further set of set of additional Cdk2 mutants were screened, all containing the C177A mutation and therefore with only one cysteine on the surface: • F80C (without the K278C mutation) • H71C • S276C • N272 • T182C • R122C • S181C
(§6) Mutations were introduced by site-directed mutagenesis and the resulting cDNA was cloned into the pRSETA bacterial expression vector to generate a poly-histidine tagged Cdk2 fusion that was purified from E. coli using standard techniques.

Cdk2(H71C) (C177A) = molecular target: T2, Cdk2(H71C) (C177A) (Homo sapiens, UniProt P24941, C177A/H71C); assay: Kinetic thiol consumption assay with Cdk2 mutant H71C; type: binding; set-up: key to Rate enhancement, Cdk2 H71C: rate constant with Cdk2 ÷ rate constant with model thiol (fold); settings: additional mutation C177A; for Rate constant with Cdk2 H71C: Protein: Cdk2, cysteine position H71C, in h^-1
T2 construct: poly-histidine; made in house; host or cells: E. coli
Protocol: as §1, §2, §3, §4, §5, §6

Cdk2(S276C) (C177A) = molecular target: T3, Cdk2(S276C) (C177A) (Homo sapiens, UniProt P24941, C177A/S276C); assay: Kinetic thiol consumption assay with Cdk2 mutant S276C; type: binding; set-up: key to Rate enhancement, Cdk2 S276C: rate constant with Cdk2 ÷ rate constant with model thiol (fold); settings: additional mutation C177A; for Rate constant with Cdk2 S276C: Protein: Cdk2, cysteine position S276C, in h^-1
T3 construct: poly-histidine; made in house; host or cells: E. coli
Protocol: as §1, §2, §3, §4, §5, §6

Cdk2(T182C) (C177A) = molecular target: T4, Cdk2(T182C) (C177A) (Homo sapiens, UniProt P24941, C177A/T182C); assay: Kinetic thiol consumption assay with Cdk2 mutant T182C; type: binding; set-up: key to Rate enhancement, Cdk2 T182C: rate constant with Cdk2 ÷ rate constant with model thiol (fold); settings: additional mutation C177A; for Rate constant with Cdk2 T182C: Protein: Cdk2, cysteine position T182C, in h^-1
T4 construct: poly-histidine; made in house; host or cells: E. coli
Protocol: as §1, §2, §3, §4, §5, §6

Cdk2(C177A, F80C) = molecular target: T5, Cdk2(C177A, F80C) (Homo sapiens, UniProt P24941, C177A/F80C); assay: Kinetic thiol consumption assay with Cdk2 mutant F80C, incl. kobs versus concentration (Kd, k2); type: binding; set-up: key to Rate enhancement, Cdk2 F80C: Cdk2 rate constant divided by model-thiol rate constant; settings: additional mutation C177A; for Rate constant with Cdk2 F80C: Protein: Cdk2, cysteine position F80C, in h^-1
T5 construct: poly-histidine; made in house; host or cells: E. coli
Protocol: Therefore the assay can be used to calculate both k2 and Kd by experimentally determining kobs at a suitable range of ligand candidate concentrations. Typically Kd and k2 would then be determined by fitting a hyperbolic curve to a plot of kobs against ligand candidate concentration (FIG. 9).
as §1, §2, §3, §4, §5, §6
Rate constants were calculated as described in the methodology section of Examples 1 and 2.

[1] = molecular target: T6, human cyclin-dependent kinase 2 (Cdk2) (Homo sapiens, UniProt P24941); assay: Kinetic thiol consumption assay with wild type Cdk2 (C177); type: binding; set-up: key to Rate enhancement, Cdk2 WT: k(Cdk2) divided by k(model thiol); Rate constant with Cdk2 (k(Cdk2)): unit not given here; settings: for Rate constant with Cdk2 (k(Cdk2)): 500 μM ligand, 5 μM thiol, phosphate buffer pH 8; for Rate enhancement, Cdk2 WT: no additional mutations; for Rate constant with Cdk2 WT: Protein: Cdk2, cysteine position WT, in h^-1; for k(Cdk2)/k(GSH) rate enhancement: model thiol glutathione
T6 construct: poly-histidine; made in house; host or cells: E. coli
Protocol: (§7) A library of 120 acrylamides was screened against a) human cyclin-dependent kinase 2 (Cdk2, which contains one surface exposed cysteine residue—C177), prepared by cloning cDNA into the pRSETA bacterial expression vector to generate a poly-histidine tagged Cdk2 fusion that was purified from E. coli using standard techniques, and b) a model thiol (specific details are given below). The structures of these 120 acrylamides are set out in Table 1, above.
as §1, §2, §3, §4

Cdk2(S181C) (C177A) = molecular target: T7, Cdk2(S181C) (C177A) (Homo sapiens, UniProt P24941, C177A/S181C); assay: Kinetic thiol consumption assay with Cdk2 mutant S181C; type: binding; set-up: key to Rate enhancement, Cdk2 S181C: rate constant with Cdk2 ÷ rate constant with model thiol (fold); settings: additional mutation C177A; for Rate constant with Cdk2 S181C: Protein: Cdk2, cysteine position S181C, in h^-1
T7 construct: poly-histidine; made in house; host or cells: E. coli
Protocol: as §1, §2, §3, §4, §5, §6

Cdk2(N272C) (C177A) = molecular target: T8, Cdk2(N272C) (C177A) (Homo sapiens, UniProt P24941, C177A/N272C); assay: Kinetic thiol consumption assay with Cdk2 mutant N272C; type: binding; set-up: key to Rate enhancement, Cdk2 N272: rate constant with Cdk2 ÷ rate constant with model thiol (fold); settings: for Rate enhancement, Cdk2 N272: Cdk2 N272, additional mutation C177A; for Rate constant with Cdk2 N272C: Protein: Cdk2, cysteine position N272C, additional mutation C177A, in h^-1
T8 construct: poly-histidine; made in house; host or cells: E. coli
Protocol: as §1, §2, §3, §4, §5, §6

[2] = Kinetic thiol consumption assay with model thiol glutathione; type: physicochemical; set-up: Rate constant with glutathione (k(GSH)): unit not given here; settings: for Rate constant with glutathione (k(GSH)): 500 μM ligand, 5 μM thiol, phosphate buffer pH 8; for Rate constant with Glutathione: Protein: Glutathione, cysteine position NA, in h-1
Protocol: as §7, §1, §2, §3, §4
The model thiol in Example 1 is glutathione (GSH). Hits were defined as fragments where kCdk2/kGSH>5.8 (empirically determined as 3 standard deviations over the mean).

| SMILES | Rate enhancement, Cdk2 R122C (Cdk2(R122C) (C177A)) | Rate constant with Cdk2 R122C (Cdk2(R122C) (C177A)) | Rate enhancement, Cdk2 H71C (Cdk2(H71C) (C177A)) | Rate constant with Cdk2 H71C (Cdk2(H71C) (C177A)) | Rate enhancement, Cdk2 S276C (Cdk2(S276C) (C177A)) | Rate constant with Cdk2 S276C (Cdk2(S276C) (C177A)) | Rate enhancement, Cdk2 T182C (Cdk2(T182C) (C177A)) | Rate constant with Cdk2 T182C (Cdk2(T182C) (C177A)) | Rate enhancement, Cdk2 F80C (Cdk2(C177A, F80C)) | Rate constant with Cdk2 (k(Cdk2)) [1] | Rate enhancement, Cdk2 WT [1] | Rate constant with Cdk2 WT [1] | k(Cdk2)/k(GSH) rate enhancement [1] | Rate enhancement, Cdk2 S181C (Cdk2(S181C) (C177A)) | Rate constant with Cdk2 S181C (Cdk2(S181C) (C177A)) | Rate enhancement, Cdk2 N272 (Cdk2(N272C) (C177A)) | Rate constant with Cdk2 N272C (Cdk2(N272C) (C177A)) | Rate constant with glutathione (k(GSH)) [2] | Rate constant with Glutathione [2] | Rate constant with Cdk2 F80C (Cdk2(C177A, F80C)) |
| --- | --- | --- | --- | --- | --- | --- | --- | --- | --- | --- | --- | --- | --- | --- | --- | --- | --- | --- | --- | --- |
| C=CC(=O)N(C)C1C2CCOC2C1(C)C (stereo not drawn) [CA-182] | 1.368 | 0.004115 | 0.6721 | 0.002021 | 0.6169 | 0.001855 | 6.867 | 0.02065 | 0 | 0.00381 | 1.268 | 0.003813 | 1.254 | 3.018 | 0.009074 | 1.56 | 0.004691 | 0.00304 | 0.003007 | – |
| C=CC(=O)N(C1CC1)C1CCCCC1C1CCCCC1 (stereo not drawn) [CA-081/240] | 0.7099 | 0.001659 | 0.9042 | 0.002113 | 7.411 | 0.01732 | 8.314 | 0.01943 | 4.621 | – | 7.599 | 0.01776 | – | 9.936 | 0.02322 | 3.276 | 0.007657 | – | 0.002337 | 0.0108 |
| O=C(CCl)N1CCSc2ccccc21 [EN004] | 0.1248 | 0.04566 | 0.3522 | 0.1289 | 4.615 | 1.689 | 0 | – | 0.01666 | – | 4.361 | 1.596 | – | 0.08978 | 0.03286 | 0.243 | 0.08895 | – | 0.366 | 0.006096 |
| C=CC(=O)N(Cc1ccco1)Cc1ccco1 [CA-099/153] | 2.423 | 0.5145 | 0.2907 | 0.06172 | 2.266 | 0.481 | 2.038 | 0.4326 | 0.1651 | – | 1.366 | 0.2899 | – | 1.479 | 0.314 | 2.393 | 0.5081 | – | 0.2123 | 0.03506 |
| C#CCN1CCCN(C(=O)C=C)CC1 [CA-196] | 0.7394 | 0.002681 | 0 | – | 0.4186 | 0.001518 | 2.74 | 0.009935 | 0.4719 | 0.00372 | 1.03 | 0.003735 | 1.021 | 0.7592 | 0.002753 | 0.8296 | 0.003008 | 0.00365 | 0.003626 | 0.001711 |
| C=CS(=O)(=O)c1ccccc1 [EN001] | 0.2211 | 1.352 | 0.3485 | 2.131 | 0.5145 | 3.146 | 1.394 | 8.524 | 0.0006656 | – | 1.608 | 9.832 | – | 0.06554 | 0.4008 | 0.3977 | 2.432 | – | 6.115 | 0.00407 |

Source: patent US11415579B2, “Assay for measuring a rate of reaction between a target and a ligand candidate” (Imperial College Innovations Ltd., priority 2016, dated 2022)
